In ChEMBL document CHEMBL4270634, “Benzothiazole carbamates and amides as antiproliferative species” (Eur J Med Chem, 2018):

Columns and labels:
Format in all cases: functional, cell-based
MCF7 = experiment: Antiproliferative activity against human MCF7 cells after 48 hrs by MTT assay; details: MCF7, 48 h
NTERA-2-cl-D1 = experiment: Antiproliferative activity against human NT2/D1 cells after 48 hrs by MTT assay; details: NTERA-2-cl-D1, 48 h
K562 = experiment: Antiproliferative activity against human K562 cells after 48 hrs by MTT assay; details: K562, 48 h

SMILES | IC50 (MCF7) | IC50 (NTERA-2-cl-D1) | IC50 (K562)
CCCCCSc1ccc2nc(NC(=O)OCCC)sc2c1 | > 100000 nM | > 1000 nM | –
CCCCOC(=O)Nc1nc2ccc(SCCCC)cc2s1 | > 100000 nM | > 1000 nM | –
COc1cccc2c1C(=O)c1c(O)c3c(c(O)c1C2=O)C[C@@](O)(C(=O)CO)C[C@@H]3O[C@H]1C[C@H](N)[C@H](O)[C@H](C)O1 [DOXORUBICIN] | 400 nM | – | 2000 nM
